Where no end group is shown, it is not given here.
Columns and labels:
GLP-1R-/- mice = test: Intracerebroventricular peptide injection and food intake in GLP-1R-/- mice; format: in vivo, mouse; settings: icv 50 ug; dark phase; 0-1 hour and 2-4 hour time points
Experimental: FIG. 1: h[Gly^2]-GLP-2 (also designated “440” in the Figure) inhibits dark phase food intake in mice. […] Following recovery, food intake was measured at 1, 2, and 4 hours (Hr) after injection. Values are expressed as mean±S.E.M., n=6 per group for (a) and n=8-20 for (b). (c) Groups of wildtype mice were administered either vehicle (PBS), h[Gly^2]-GLP-2 (50 ug dissolved in PBS), h[Gly^2]-GLP-2 and exendin (9-39) (50 ug of each peptide dissolved in PBS) or exendin (9-39) alone (50 ug dissolved in PBS) via icv injection. (f) Groups of wildtype mice were administered (icv) either vehicle (PBS), h[Gly^2]-GLP-2 alone (50 ug dissolved in PBS), or h[Gly^2]-GLP-2 (50 ug dissolved in PBS) and exendin (9-39) (0.05, 0.5 or 5 ug dissolved in PBS). (e) Groups of wildtype and GLP-1R−/− mice were injected icv with either vehicle (PBS) or h[Gly^2]-GLP-2 (50 ug dissolved in PBS) just prior to the start of dark phase and food intake was measured at 1, 2, and 4 hours. Data are expressed as mean±S.E.M., n=5-8 for all groups. […]
For icv injections adult male CD1 mice randomized into multiple experimental groups were deeply anesthetized by inhalation of methoxyflurane (Metophane; Janssen, Toronto Ontario) (43). […] Mice were then weighed, given a premeasured quantity of rodent chow and food intake was quantified at 1, 2, 4 and 22 hours. […]

rat GLP-1 receptor = target: T1, rat GLP-1 receptor (Rattus norvegicus, UniProt P32301); test: cAMP accumulation in BHK cells stably expressing the rat GLP-1 receptor (RIA); format: cell-based; settings: BHK-GLP-1R cells
T1 construct: expressed in transfected cells; host or cells: BHK (baby hamster kidney fibroblast) cells, stably transfected
T1 sequence (P32301 22-463): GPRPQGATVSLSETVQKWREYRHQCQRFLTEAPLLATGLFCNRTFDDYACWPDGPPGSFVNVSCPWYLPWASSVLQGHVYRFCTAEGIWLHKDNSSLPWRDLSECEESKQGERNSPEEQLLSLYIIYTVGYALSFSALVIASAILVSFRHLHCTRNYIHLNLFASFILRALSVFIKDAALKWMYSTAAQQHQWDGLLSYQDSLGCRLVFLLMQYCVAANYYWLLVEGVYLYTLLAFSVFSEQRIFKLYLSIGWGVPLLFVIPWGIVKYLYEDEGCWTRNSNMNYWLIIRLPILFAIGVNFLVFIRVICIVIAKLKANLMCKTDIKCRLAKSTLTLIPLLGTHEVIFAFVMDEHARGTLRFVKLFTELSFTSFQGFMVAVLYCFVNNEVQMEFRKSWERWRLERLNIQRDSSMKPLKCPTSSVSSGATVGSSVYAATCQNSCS

rat GLP-2 receptor = target: T2, rat GLP-2 receptor (Rattus norvegicus, UniProt Q9Z0W0); test: cAMP accumulation in BHK cells stably expressing the rat GLP-2 receptor (RIA); format: cell-based; settings: BHK-GLP-2R cells
T2 construct: expressed in transfected cells; host or cells: BHK (baby hamster kidney fibroblast) cells, stably transfected
T2 sequence (Q9Z0W0 1-550): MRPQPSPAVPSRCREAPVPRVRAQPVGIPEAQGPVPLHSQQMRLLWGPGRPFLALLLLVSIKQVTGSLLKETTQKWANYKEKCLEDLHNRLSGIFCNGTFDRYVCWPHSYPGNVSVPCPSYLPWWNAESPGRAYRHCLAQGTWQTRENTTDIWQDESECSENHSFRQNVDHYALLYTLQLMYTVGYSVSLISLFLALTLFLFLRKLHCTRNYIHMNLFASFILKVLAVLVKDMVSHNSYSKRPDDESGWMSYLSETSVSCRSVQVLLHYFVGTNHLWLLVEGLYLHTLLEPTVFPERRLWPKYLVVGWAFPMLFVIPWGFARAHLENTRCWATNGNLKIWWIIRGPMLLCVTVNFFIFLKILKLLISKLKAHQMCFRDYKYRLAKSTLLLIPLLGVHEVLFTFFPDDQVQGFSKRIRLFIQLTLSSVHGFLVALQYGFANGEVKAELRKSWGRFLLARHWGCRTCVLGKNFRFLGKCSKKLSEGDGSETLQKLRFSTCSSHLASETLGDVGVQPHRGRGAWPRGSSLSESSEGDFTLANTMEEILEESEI
Experimental: Peptides were diluted in DMEM containing 100 μM IBMX. The cAMP concentration in aliquots of ethanol extract was determined using a RIA and normalized to show cAMP/well. […] The concentration of peptide is plotted on a logarithmic scale. Error bars represent mean±SD.
GLP-2 receptors were propagated as previously described (42) and levels of intracellular cAMP were assayed following exposure to individual peptides in DMEM containing 100 μM IBMX (Sigma Chemical Co., St. Louis, Mo.) as reported (41,42). […] The treated cells were then incubated at 37° C. for 10 minutes. Absolute ethanol (−20° C.) was added to terminate the reaction and the plates were stored at −80° C. until the cell extracts were collected (2-4 hours later). Forskolin was used as a positive control. Cyclic adenosine monophosphate (cAMP) radioimmunoassays (Biomedical Technologies, Stoughton, Mass.) were performed on dried aliquots of extract and data was normalized to cAMP/well. All treatments were performed in triplicate or quadruplicate and the data is expressed as mean±SD. EC50 values were calculated using GraphPad Prism 3.00 (GraphPad Software Inc., San Diego, Calif.).

adult male CD1 mice = test: Intracerebroventricular peptide injection and food intake in wildtype mice; format: in vivo, mouse; settings: for dark phase food intake: icv prior to dark phase; for dark phase food intake / food intake in fasted mice: h[Gly2]-GLP-2 50 ug, exendin-4 1 ug; for food intake in fasted mice: after 15 hour fast
Experimental: FIG. 1: h[Gly^2]-GLP-2 (also designated “440” in the Figure) inhibits dark phase food intake in mice. […] Following recovery, food intake was measured at 1, 2, and 4 hours (Hr) after injection. Values are expressed as mean±S.E.M., n=6 per group for (a) and n=8-20 for (b). (c) Groups of wildtype mice were administered either vehicle (PBS), h[Gly^2]-GLP-2 (50 ug dissolved in PBS), h[Gly^2]-GLP-2 and exendin (9-39) (50 ug of each peptide dissolved in PBS) or exendin (9-39) alone (50 ug dissolved in PBS) via icv injection. (f) Groups of wildtype mice were administered (icv) either vehicle (PBS), h[Gly^2]-GLP-2 alone (50 ug dissolved in PBS), or h[Gly^2]-GLP-2 (50 ug dissolved in PBS) and exendin (9-39) (0.05, 0.5 or 5 ug dissolved in PBS). (e) Groups of wildtype and GLP-1R−/− mice were injected icv with either vehicle (PBS) or h[Gly^2]-GLP-2 (50 ug dissolved in PBS) just prior to the start of dark phase and food intake was measured at 1, 2, and 4 hours. Data are expressed as mean±S.E.M., n=5-8 for all groups. Treatments at each time point for experiments shown in FIG. 1 were compared using a one way analysis of variance followed by an LSD multiple range test using SPSS for Windows version 5.0.1 (SPSS Inc., Chicago Ill.). *p<0.05 compared to controls (PBS), or to comparisons between groups indicated by connected lines.
For icv injections adult male CD1 mice randomized into multiple experimental groups were deeply anesthetized by inhalation of methoxyflurane (Metophane; Janssen, Toronto Ontario) (43). Following icv injections of equal volumes of saline or peptide dissolved in saline, animals were allowed to recover for ^˜15-20 minutes until the observation of a righting-response. Mice were then weighed, given a premeasured quantity of rodent chow and food intake was quantified at 1, 2, 4 and 22 hours. The accuracy of icv injection was verified at autopsy analysis by detection of bromophenol dye in the lateral ventricles of selected animals. Animals were injected with peptide at either 19:00 hours (for dark phase feeding studies) or at 10:00 hours following an overnight fast of 15 hours (for fasting studies).

rats = settings: cited from earlier work
[1] = system: human subjects with short bowel syndrome; settings: 400 ug twice daily; cited from earlier work

CC[C@H](C)[C@H](NC(=O)[C@H](Cc1ccccc1)NC(=O)[C@H](CC(=O)O)NC(=O)[C@H](CCCNC(=N)N)NC(=O)[C@H](C)NC(=O)[C@H](C)NC(=O)[C@H](CC(C)C)NC(=O)[C@H](CC(N)=O)NC(=O)[C@H](CC(=O)O)NC(=O)[C@H](CC(C)C)NC(=O)[C@@H](NC(=O)[C@@H](NC(=O)[C@H](CC(N)=O)NC(=O)[C@H](CCSC)NC(=O)[C@H](CCC(=O)O)NC(=O)[C@H](CC(=O)O)NC(=O)[C@H](CO)NC(=O)[C@H](Cc1ccccc1)NC(=O)[C@H](CO)NC(=O)CNC(=O)[C@H](CC(=O)O)NC(=O)CNC(=O)[C@@H](N)Cc1c[nH]cn1)[C@@H](C)O)[C@@H](C)CC)C(=O)N[C@@H](CC(N)=O)C(=O)N[C@@H](Cc1c[nH]c2ccccc12)C(=O)N[C@@H](CC(C)C)C(=O)N[C@H](C(=O)N[C@@H](CCC(N)=O)C(=O)N[C@H](C(=O)N[C@@H](CCCCN)C(=O)N[C@H](C(=O)N[C@H](C(=O)N[C@@H](CC(=O)O)C(=O)O)[C@@H](C)O)[C@@H](C)CC)[C@@H](C)O)[C@@H](C)CC [h[Gly^2]-GLP-2]
inhibition of food intake in GLP-1R-/- mice compared with +/+ control mice (GLP-1R-/- mice): significantly greater sensitivity | cAMP accumulation (agonist effect) (rat GLP-1 receptor): no effect on cAMP accumulation | cAMP accumulation (agonist effect) (rat GLP-2 receptor): increased cAMP accumulation in a dose-dependent manner | EC50 (rat GLP-2 receptor; 0 nM Exendin (9-39) pre-treatment): 0.044 nM | EC50 (rat GLP-2 receptor; in the presence of 50 nM Exendin (9-39)): 0.059 nM | EC50 (rat GLP-2 receptor; in the presence of 500 nM Exendin (9-39)): 0.076 nM | EC50 (rat GLP-2 receptor; in the presence of 1000 nM Exendin (9-39)): 0.081 nM | dark phase food intake (adult male CD1 mice): significantly inhibited | food intake in fasted mice (adult male CD1 mice; icv): not | food intake in the first hour after injection, absence of exendin (9-39) (adult male CD1 mice; icv, dark phase, 50 ug): did not inhibit food intake | duration of inhibitory effect on food intake (adult male CD1 mice; icv, data not shown): transient and not detectable after more than 4 hours | inhibition of food intake with co-administered exendin (9-39) (adult male CD1 mice; icv, wildtype mice, 50 ug of each peptide, multiple time intervals including first hour): significantly more pronounced

Rat GLP-1 (7-36)NH2 [reference compound]
cAMP accumulation (agonist effect) (rat GLP-2 receptor): no cAMP accumulation was detected

exendin (9-39) [reference compound]
effect on GLP-1-stimulated cAMP accumulation (antagonism) (rat GLP-1 receptor): decreased GLP-1-stimulated cAMP accumulation in a concentration-dependent manner | effect on h[Gly2]-GLP-2-stimulated cAMP formation (antagonism) (rat GLP-2 receptor; exendin (9-39) 50-1000 nM): no effect | effect on the anorectic effects of GLP-2 in rats (rats): completely inhibited | amount sufficient for significant potentiation of anorectic effect of h[Gly2]-GLP-2 (adult male CD1 mice; icv with h[Gly2]-GLP-2 50 ug, dark phase, 1-2 hour time point): 0.05 µg

exendin-4 [reference compound]
cAMP accumulation (agonist effect) (rat GLP-2 receptor): no cAMP accumulation was detected | dark phase food intake (adult male CD1 mice): significantly inhibited | food intake in fasted mice (adult male CD1 mice; icv): inhibited food intake | inhibitory effect on dark phase food intake compared with h[Gly2]-GLP-2 (adult male CD1 mice; icv, dark phase): significantly more potent

glucagon-like peptide 2 (HADGSFSDEMNTILDNLAARDFINWLIQTKITD; also: acetate salt; UniProt P01275 146-178, looked up) [GLP-2, wild type glucagon-like peptide 2; literature results in rats (icv) and in humans as acetate salt]
therapeutic response in short bowel patients [1]: significant therapeutic response | food intake in rats after icv infusion (rats; icv): inhibited food intake

Reference: patent publication US7862824B2, “Enhancement of GLP-2 activity of suppressing appetite” (1149336 Ontario, Inc., priority 2001, dated 2011)
